The values that follow are results of earlier work, collected in patent US9636305B2, “Antiemetic extended release solid dosage forms” (RedHill Biopharma Ltd., priority 2013, dated 2017).

Molecules are shown by their SMILES.

The conditions of this data set: scale of Pliska et al., J. Chromatog. 216, 79, 1981.
As for `NCC(=O)O` [glycine], the hydropathy value is 0.

Consider `N[C@@H](CC(=O)O)C(=O)O` [aspartic acid], for which the hydropathy value is given as −2.15. In the case of `CC[C@H](C)[C@H](N)C(=O)O` [iso-leucine], the hydropathy value is given as 1.83.
